How the values were obtained:
VANILREP1 [1] = target: T1, VANILREP1 (Homo sapiens, UniProt Q8NER1); assay: Two-electrode voltage-clamp recordings in Xenopus laevis oocytes injected with VANILREP1 cDNA; assay type: cell-based; conditions: oocytes expressing VANILREP1, held at −60mV; capsaicin over a range of concentrations; FIG. 1
T1 construct: expressed in transfected cells; host or cells: Xenopus laevis oocytes (nuclear injection of cDNA)
Procedure: (§1) Xenopus laevis oocyte removal and dissociation were performed. Injections of cDNA for […]1 were made into the nuclei of defolliculated oocytes (1.5ng cDNA/oocyte). After injection the oocytes were incubated between 19-22° C. in modified Barth's solution (MBS) plus gentamycin (0.1mg/ml, pH 7.4) and used for electrophysiological recordings within 2-4 days.
(§2) For electrophysiological recordings oocytes were placed in a recording chamber and continuously perfused with a solution containing in mM: NaCl 88, KCI 1, NaHCO3 2.4, HEPES 15, MgCI2 1, BaCI2 0.1. (14 ml min^−1). Solution was applied using large bore tubing (internal diameter 1.5mm) which facilitated rapid solution exchange half-time 350 -1000 ms). Oocytes were held under voltage clamp at −60mV using the two-electrode voltage-clamp technique. Electrodes were low resistance (0.5-3 MΩ) and were filled with 3 M KCI.
(§3) Currents were evoked in response to application of capsaicin applied through the perfusion system until the maximum current amplitude was reached.

VANILREP1 [2] = target: T2, VANILREP1 (Homo sapiens, UniProt Q8NER1, K571I/M315I/M572C); assay: as above; assay type: cell-based
T2 construct: expressed in transfected cells; host or cells: Xenopus laevis oocytes (nuclear injection of cDNA)
Procedure: as §1, §2, §3

T2 sequence (Q8NER1 whole entry M315I/K571I/M572C): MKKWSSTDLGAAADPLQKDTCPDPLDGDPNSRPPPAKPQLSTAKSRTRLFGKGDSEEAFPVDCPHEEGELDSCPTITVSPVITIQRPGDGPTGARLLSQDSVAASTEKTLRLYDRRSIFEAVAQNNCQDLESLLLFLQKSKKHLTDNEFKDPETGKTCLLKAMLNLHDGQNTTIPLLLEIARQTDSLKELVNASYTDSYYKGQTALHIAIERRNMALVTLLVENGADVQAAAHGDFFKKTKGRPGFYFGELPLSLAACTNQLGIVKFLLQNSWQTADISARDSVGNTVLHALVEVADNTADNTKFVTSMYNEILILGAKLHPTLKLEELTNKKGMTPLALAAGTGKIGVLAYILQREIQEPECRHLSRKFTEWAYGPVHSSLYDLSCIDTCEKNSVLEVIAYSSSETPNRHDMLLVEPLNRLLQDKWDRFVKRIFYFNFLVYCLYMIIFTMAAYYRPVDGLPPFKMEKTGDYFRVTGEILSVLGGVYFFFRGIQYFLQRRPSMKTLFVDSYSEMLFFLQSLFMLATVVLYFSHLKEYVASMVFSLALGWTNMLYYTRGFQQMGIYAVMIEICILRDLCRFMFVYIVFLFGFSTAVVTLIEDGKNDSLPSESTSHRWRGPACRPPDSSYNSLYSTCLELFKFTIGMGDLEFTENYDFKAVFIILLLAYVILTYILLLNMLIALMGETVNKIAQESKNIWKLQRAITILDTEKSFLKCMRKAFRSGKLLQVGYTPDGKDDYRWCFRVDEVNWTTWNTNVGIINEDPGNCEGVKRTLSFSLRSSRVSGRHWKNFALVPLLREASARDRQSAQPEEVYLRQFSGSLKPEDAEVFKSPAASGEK
T1 sequence (Q8NER1 whole entry M315I/K571I/M572C): as above

| Compound | currents evoked in response to application of capsaicin (VANILREP1 [1]) | inhibition of the capsaicin evoked response (VANILREP1 [2]; capsazepine 10uM against capsaicin 1uM, oocytes expressing VANILREP1, FIG. 2) | reversibility of the inhibition of the capsaicin evoked response (VANILREP1 [2]; capsazepine 10uM, capsaicin 1uM, extended washing) |
| --- | --- | --- | --- |
| COc1cc(CNC(=O)CCCC/C=C/C(C)C)ccc1O [capsaicin] | currents evoked | – | – |
| Oc1cc2c(cc1O)CN(C(=S)NCCc1ccc(Cl)cc1)CCC2 [capsazepine] | – | inhibition | reversible with extended washing |

Source: patent US20010047090A1, “VANILREP1 polynucleotides and VANILREP1 polypeptides” (priority 1998, published 2001)
